What all share (format): cell-based, murine
In series [1] the test system is committed BM progenitor cells. Kind of series: Photosensitivity of committed BM progenitors, colony forming assay. The source says: (§1) Animals. C57B1/6 (Ly-5.2) and B6SJ-cd45 ^b pep 3^b /BOY J (Ly-5.1), were obtained from The Jackson Laboratories (Bar Harbor, Me.) and were maintained in the animal facility of the New York Blood Center. After gamma-irradiation, the animals were housed in microisolator cages and provided with autoclaved food and autoclaved acidified water (pH=3) ad libitum. Preparation of bone marrow cell suspensions--Ly-5.1 mice were used as the source of donor BM. Mice (8-10 weeks old) were killed and the BM was harvested by flushing the femoral shafts with Hank's balanced salt solution (HBSS), pH 7.4. The cell suspensions were centrifuged, washed once and the cells were finally resuspended in HBSS--10% vol/vol fetal bovine serum (FBS, Gemini Bioproducts Inc., Calabasas, Calif.).
(§2) Photosensitization. Aliquots of a 1.87 mM Pc 4 (kindly provided by Dr. M. E. Kenney) stock solution in dimethyl sulfoxide were kept at -80° C. in autoclaved brown glass vials. Immediately prior to the photosensitization, Pc4 was thawed and diluted in dimethyl formamide to yield a 10 μM working solution. […] Pc 4 was used at 15 nM throughout the experiments.
(§3) BM and cell line samples, were incubated with 15 nM Pc 4 for two hours at 37° C. at cell concentrations of 1.5×10^7 cells/mL. Aliquots of 1.5 mL were transferred to 24-well plates; separate plates were used for each sample.
(§4) In a second set of experiments, the cells were incubated with 15 nM Pc 4 at cell concentrations of 1.5×10^6 cells/mL. Prior to photoirradiation, the samples were centrifuged and the supernatants were aspirated and set aside. The cell concentrations were adjusted to 1.5×10^7 cells/mL by adding back an appropriate volume of the Pc 4 containing aspirates.
(§5) Photoinactivation. The light source used was a filtered xenon short arc lamp (Versa-Light, Model UV-R6G, Medic Lightech, Ltd., Haifa, Israel). It was used to deliver red light (λ 600-700 nm) to the sensitized cells. After a 20 minute warm up period of the instrument, the distance from the light source to the bottom of the 24-well plate was adjusted to obtain a fluence rate of 26.6 mW/cm^2, as measured with a radiometer (Model IL 1350, International Light, Newburyport, Mass.). Samples were placed under the light source and were stirred during the irradiations. Before and after the irradiations, samples were kept in the dark.
(§6) Colony forming assays. BM samples were plated (in duplicate) in a semi-solid medium that contained IMDM (GibcoBRL), supplemented with 30% vol/vol FBS, 0.15% wt/vol deionized bovine serum albumin (Migliaccio, G., et al. Brit. J. Haematol. 67:129 (1987)) (Sigma, St. Louis, Mo.), 0.8% wt/vol methylcellulose, 75 μM β-mercaptoethanol (Sigma), antibiotics (100 U/mL penicillin, […], […] fungizone, GibcoBRL) and a cocktail of growth factors including: murine interleukin-3 (1% vol/vol COS-cell-derived supernatant, gift from Dr. K. Kaushansky), murine granulocyte-macrophage colony stimulating factor (1% vol/vol COS-cell-derived supernatant, gift from Dr. K. Kaushansky), recombinant human interleukin-11 (16 U/mL, gift from Genetics Institute, Cambridge, Mass.), recombinant rat stem cell factor (100 ng/mL), granulocyte colony stimulating factor (10 ng/mL), recombinant human erythropoietin (20 ng/mL, gifts from Amgen, Thousand Oaks, Calif.), and 800 U/mL murine thrombopoietin (800 U/mL, gift from Zymonetics, Seattle, Wash.). The samples were incubated at 37° C. in a humidified 5% CO2 -incubator and megakaryocyte colony forming units (CFU-Mk) were counted after 5 days. Blast forming units-erythroid (BFU-E), CFU-GM and mixed colonies (CFU-Mix) were counted after seven days.
(§7) Statistics. All assays were performed in triplicate unless mentioned otherwise. Data are expressed as mean values±standard error of the mean (SEM). Survival data are presented as surviving fractions relative to the surviving fractions of the untreated controls. […]

Another series relates to BFU-E. The series is described as above. The note with it: 15 nM, 1.5×10^6 cells/mL.
From the text: as §1, §2, §3, §4, §5, §6, §7

Another series has as its system CFU-Mix. Described as above. The note with it: 15 nM, 1.5×10^6 cells/mL.
From the text: as §1, §2, §3, §4, §5, §6, §7

A further series deals with CFU-Mk. The series is described as above. The following applies: 15 nM, 1.5×10^6 cells/mL.
From the text: as §1, §2, §3, §4, §5, §6, §7

A further series concerns CFU-GM. Described as above. The following applies: 15 nM, 1.5×10^6 cells/mL.
From the text: as §1, §2, §3, §4, §5, §6, §7

Experiment in series [2]: as above
The following applies: mouse.
From the text: as §1, §2, §3, §4, §5, §6, §7

Series [3] has as its system cell lines and bone marrow samples. Kind of series: Uptake of Pc 4. Here is the method: as §2

On to `CN(C)CCC[Si](C)(C)O[Si]1(O)n2c3c4ccccc4c2N=C2N=C(N=c4c5ccccc5c(n41)=NC1=NC(=N3)c3ccccc31)c1ccccc12` (centres unmarked) [Pc 4, hydroxysiloxy-dimethylpropyl-N-dimethyl silicon phthalocyanine], for which the “photosensitivity of all committed progenitor subsets” value in series [1] (15 nM, 1.5×10^7 cells/mL, 3 J/cm^2) is reported as “resistant”. The “loss of committed progenitor cells” value in series [1] (Pc 4, 18 J/cm^2) is on record as 2-3 logs. In addition, the “fluence for photoinactivation to below the detection levels” value was determined as 3 J/cm^2 with BFU-E, 3 J/cm^2 with CFU-Mix, 6 J/cm^2 in the series with CFU-Mk and 6 J/cm^2 in the series with CFU-GM. Further, the cytotoxicity at 0.015 µM in series [2] (bone marrow cfu-gm, 15 nM Pc 4, murine BM, read-out: losses of CFU-GM on incubation) lay within 0 to 15%. For the same compound, the viability at 0.015 µM in series [2] (bone marrow progenitors, 15 nM, 1.5×10^7 cells/mL, 18 J/cm^2, read-out: surviving fraction (colony forming ability relative to untreated controls)) is under 0.3%. The “dependence of Pc 4 uptake on cell concentration” value in series [3] (all cell types, 15 nM) was “inversely correlated with the cell concentration”. The “cellular Pc 4 concentration in BM fractions relative to cell lines” value in series [3] (committed progenitors and pluripotent stem cells, corrected for cell volume) is “almost twice”. Also, the “time to complete uptake” value in series [3] (murine BM samples) is recorded as “complete after two hours”.

These data come from patent publication US6159733A, “Method for photoinactivating malignant cells” (priority 1996, dated 2000).
